# Where two headings read alike, the source gives them in different places.
# Tested on: M. mycetomatis genome strain MM55
# Assay: CLSI M38-A2 based in vitro susceptibility screening (XTT or resazurin), growth at fixed concentration
# Assay type: cell-based, Madurella mycetomatis
# Conditions: Madurella mycetomatis; for Percent fungal survival at 100 µM: read-out: Percentage survival at 100um, 100 uM A (second replicate column)
# [1] = 25 uM, mean of replicates, read-out: Percentage survival at 25um, 25 uM mean
# [2] = 25 uM, replicate A, read-out: Percentage survival at 25um, 25 um A
# [3] = 25 uM, replicate B, read-out: Percentage survival at 25um, 25 uM B
# [4] = 25 uM, replicate C, read-out: Percentage survival at 25um, 25 uM C
# [5] = mean of replicates, read-out: Percentage survival at 100um, 100 uM mean
# [6] = replicate 1, read-out: Percentage survival at 100um, 100 uM A
# [7] = replicate 2, read-out: Percentage survival at 100um, 100 uM A
# [8] = replicate 3, read-out: Percentage survival at 100um, 100 uM A
# [9] = 25 uM, mean of three, M. mycetomatis MM55, read-out: Percentage survival at 25um, 25 uM mean
# [10] = 25 uM, replicate A, M. mycetomatis MM55, read-out: Percentage survival at 25um, 25 um A
# [11] = 25 uM, replicate B, M. mycetomatis MM55, read-out: Percentage survival at 25um, 25 uM B
# [12] = 25 uM, replicate C, M. mycetomatis MM55, read-out: Percentage survival at 25um, 25 uM C
# [13] = mean of three, M. mycetomatis MM55, read-out: Percentage survival at 100um, 100 uM mean
# [14] = replicate 1, M. mycetomatis MM55, read-out: Percentage survival at 100um, 100 uM A (first replicate column)
# [15] = replicate 2, M. mycetomatis MM55
# [16] = replicate 3, M. mycetomatis MM55, read-out: Percentage survival at 100um, 100 uM A (third replicate column)
# [17] = 25 uM, mean, read-out: Percentage survival at 25um, 25 uM mean
# [18] = mean, read-out: Percentage survival at 100um, 100 uM mean
# [19] = replicate (first column), read-out: Percentage survival at 100um, 100 uM A
# [20] = replicate (second column), read-out: Percentage survival at 100um, 100 uM A
# [21] = replicate (third column), read-out: Percentage survival at 100um, 100 uM A
# [22] = 25 uM, mean of three replicates, read-out: Percentage survival at 25um, 25 uM mean
# [23] = mean of three replicates, read-out: Percentage survival at 100um, 100 uM mean
# [24] = replicate 1, read-out: Percentage survival at 100um, 100 uM A (first replicate column)
# [25] = replicate 3, read-out: Percentage survival at 100um, 100 uM A (third replicate column)
# [26] = 25 uM, mean of replicates, MM55, read-out: Percentage survival at 25um, 25 uM mean
# [27] = 25 uM, replicate A, MM55, read-out: Percentage survival at 25um, 25 um A
# [28] = 25 uM, replicate B, MM55, read-out: Percentage survival at 25um, 25 uM B
# [29] = 25 uM, replicate C, MM55, read-out: Percentage survival at 25um, 25 uM C
# [30] = mean of replicates, MM55, read-out: Percentage survival at 100um, 100 uM mean
# [31] = replicate 1, MM55, read-out: Percentage survival at 100um, 100 uM A
# [32] = replicate 2, MM55, read-out: Percentage survival at 100um, 100 uM A
# [33] = replicate 3, MM55, read-out: Percentage survival at 100um, 100 uM A
# [34] = first replicate column, read-out: Percentage survival at 100um, 100 uM A
# [35] = second replicate column, read-out: Percentage survival at 100um, 100 uM A
# [36] = third replicate column, read-out: Percentage survival at 100um, 100 uM A
compound,measurement,setting,value
CCc1cc(Cc2cnc(N)nc2N)cc2c1N(C)CCC2C (stereo not shown) [MMV1582490],activity at 25 µM,[1],67.6%
same,activity at 25 µM,[2],71.5%
same,activity at 25 µM,[3],64.7%
same,activity at 25 µM,[4],66.5%
same,activity at 100 µM,[5],69.5%
same,activity at 100 µM,[6],63.4%
same,activity at 100 µM,[7],83.5%
same,activity at 100 µM,[8],61.6%
O=C(CCCC(F)(F)F)N1CCC(c2nc(-c3nccs3)no2)CC1 [MMV1582491],activity at 25 µM,[9],73.3%
same,activity at 25 µM,[10],68.8%
same,activity at 25 µM,[11],80.7%
same,activity at 25 µM,[12],70.4%
same,activity at 100 µM,[13],72.9%
same,activity at 100 µM,[14],57%
same,Percent fungal survival at 100 µM,[15],67%
same,activity at 100 µM,[16],94.8%
Cc1nc(-c2ccc(C3N(C)c4ccc(F)cc4C(=O)N3c3ccccc3)s2)cs1 (stereo not shown) [MMV1582492],activity at 25 µM,[9],71%
same,activity at 25 µM,[10],80%
same,activity at 25 µM,[11],73.5%
same,activity at 25 µM,[12],59.4%
same,activity at 100 µM,[13],79.4%
same,activity at 100 µM,[14],66.4%
same,Percent fungal survival at 100 µM,[15],101%
same,activity at 100 µM,[16],70.8%
C[C@@H](NC(=O)c1ccccc1-c1ccccc1)B(O)O [MMV1582493],activity at 25 µM,[17],84.3%
same,activity at 25 µM,[2],92.1%
same,activity at 25 µM,[3],87.2%
same,activity at 25 µM,[4],73.6%
same,activity at 100 µM,[18],83.3%
same,activity at 100 µM,[19],92.5%
same,activity at 100 µM,[20],73.6%
same,activity at 100 µM,[21],83.9%
C[C@@H](O)[C@H](N)C(=O)NS(=O)(=O)c1cccc(-c2ccc3[nH]ncc3c2)c1 [MMV1582494],activity at 25 µM,[17],82.4%
same,activity at 25 µM,[2],91.3%
same,activity at 25 µM,[3],83.3%
same,activity at 25 µM,[4],72.6%
same,activity at 100 µM,[18],79.4%
same,activity at 100 µM,[19],99.3%
same,activity at 100 µM,[20],66.8%
same,activity at 100 µM,[21],72.1%
C(=C\c1nc2ccccc2[nH]1)/c1ccc2c(c1)OCO2 [MMV1582495],activity at 25 µM,[9],76.5%
same,activity at 25 µM,[10],78.1%
same,activity at 25 µM,[11],81.8%
same,activity at 25 µM,[12],69.8%
same,activity at 100 µM,[13],66.2%
same,activity at 100 µM,[14],59.7%
same,Percent fungal survival at 100 µM,[15],74.5%
same,activity at 100 µM,[16],64.2%
CC(C)c1ccc(COc2cccc(-c3cc([S+](C)[O-])c(C#N)c(=O)[nH]3)c2)cc1 (stereo not shown) [MMV1582497],activity at 25 µM,[17],61.3%
same,activity at 25 µM,[2],65%
same,activity at 25 µM,[3],60.9%
same,activity at 25 µM,[4],58.1%
same,activity at 100 µM,[18],40.1%
same,activity at 100 µM,[19],1.56%
same,activity at 100 µM,[20],53.5%
same,activity at 100 µM,[21],65.4%
Cc1cc(Nc2ccc(F)cc2)nc(SCc2nc3ccccc3[nH]2)n1 [MMV1582498],activity at 25 µM,[17],92.9%
same,activity at 25 µM,[2],99.7%
same,activity at 25 µM,[3],99%
same,activity at 25 µM,[4],80.1%
same,activity at 100 µM,[18],45%
same,activity at 100 µM,[19],67.6%
same,activity at 100 µM,[20],17.6%
same,activity at 100 µM,[21],49.8%
CCC(CC)[C@H](NC(C)=O)[C@@H]1[C@H](O)[C@@H](C(=O)O)C[C@H]1NC(=N)N [MMV1593511],activity at 25 µM,[22],92.7%
same,activity at 25 µM,[2],97.1%
same,activity at 25 µM,[3],98.3%
same,activity at 25 µM,[4],82.7%
same,activity at 100 µM,[23],89.1%
same,activity at 100 µM,[24],95.6%
same,Percent fungal survival at 100 µM,replicate 2,83.3%
same,activity at 100 µM,[25],88.3%
CCCCCCCCCN1C[C@@H](O)[C@H](O)[C@@H](O)[C@@H]1CO [MMV1593513],activity at 25 µM,[22],93.6%
same,activity at 25 µM,[2],92%
same,activity at 25 µM,[3],104%
same,activity at 25 µM,[4],85.1%
same,activity at 100 µM,[23],87.5%
same,activity at 100 µM,[24],91.7%
same,Percent fungal survival at 100 µM,replicate 2,84.5%
same,activity at 100 µM,[25],86.2%
CNC(=O)C1O[C@@H](n2cnc3c(NCc4cccc(I)c4)nc(Cl)nc32)[C@H](O)[C@@H]1O (stereo partly shown) [MMV1593514],activity at 25 µM,[26],94.9%
same,activity at 25 µM,[27],85.8%
same,activity at 25 µM,[28],83.7%
same,activity at 25 µM,[29],115%
same,activity at 100 µM,[30],80.9%
same,activity at 100 µM,[31],74.5%
same,activity at 100 µM,[32],99.3%
same,activity at 100 µM,[33],68.9%
CCOC(=O)N[C@@H]1CC[C@@H]2[C@@H](C1)C[C@H]1C(=O)O[C@H](C)[C@H]1[C@H]2/C=C/c1ccc(-c2cccc(F)c2)cn1 [MMV1593515],activity at 25 µM,[22],69.2%
same,activity at 25 µM,[2],68.2%
same,activity at 25 µM,[3],80.3%
same,activity at 25 µM,[4],59.1%
same,activity at 100 µM,[23],72.9%
same,activity at 100 µM,[24],71.5%
same,Percent fungal survival at 100 µM,replicate 2,65.2%
same,activity at 100 µM,[25],82%
O=C(O)[C@H]1C2CCC(CC2)[C@@H]1Nc1nc(-c2c[nH]c3ncc(F)cc23)ncc1F [MMV1593516],activity at 25 µM,[22],97.3%
same,activity at 25 µM,[2],98.8%
same,activity at 25 µM,[3],105%
same,activity at 25 µM,[4],88.2%
same,activity at 100 µM,[34],107%
same,activity at 100 µM,[23],98.7%
same,activity at 100 µM,[35],103%
same,activity at 100 µM,[36],86.5%
O=C(/C=C/n1cnc(-c2cc(C(F)(F)F)cc(C(F)(F)F)c2)n1)NNc1cnccn1 [MMV1593517],activity at 25 µM,[22],90.4%
same,activity at 25 µM,[2],63%
same,activity at 25 µM,[3],118%
same,activity at 25 µM,[4],90.3%
same,activity at 100 µM,[34],102%
same,activity at 100 µM,[23],102%
same,activity at 100 µM,[35],111%
same,activity at 100 µM,[36],95%
C[C@@]1(O)[C@H](O)[C@@H](CO)O[C@H]1n1ccc2c(N)ncnc21 [MMV1593519],activity at 25 µM,[22],94.2%
same,activity at 25 µM,[2],94.4%
same,activity at 25 µM,[3],105%
same,activity at 25 µM,[4],83.4%
same,activity at 100 µM,[34],80.2%
same,activity at 100 µM,[23],86.2%
same,activity at 100 µM,[35],92.3%
same,activity at 100 µM,[36],86.2%
[N-]=[N+]=N[C@H]1C[C@H](n2ccc(=O)[nH]c2=O)O[C@@H]1CO [MMV1593520],activity at 25 µM,[2],94.3%
same,activity at 100 µM,[34],91.5%
same,activity at 100 µM,[23],87%
same,activity at 100 µM,[35],80.1%
same,activity at 100 µM,[36],89.4%
same,activity at 25 µM,"read-out: Percentage survival at 25um, 25 uM B",107%
same,activity at 25 µM,"read-out: Percentage survival at 25um, 25 uM C",100%
same,activity at 25 µM,"read-out: Percentage survival at 25um, 25 uM mean",100%
CC(C)Nc1nc2cc(Cl)c(Cl)cc2n1[C@H]1O[C@@H](CO)[C@H](O)[C@@H]1O [MMV1593521],activity at 25 µM,[26],93.6%
same,activity at 25 µM,[27],104%
same,activity at 25 µM,[28],89.6%
same,activity at 25 µM,[29],87%
same,activity at 100 µM,[30],81.8%
same,activity at 100 µM,[31],90.8%
same,activity at 100 µM,[32],82%
same,activity at 100 µM,[33],72.5%
O=C(Nc1ccc(-c2ccccc2)cc1)C1=C(O)C(Cc2ccccc2)OC1=O (stereo not shown) [MMV1593531],activity at 25 µM,[1],72.9%
same,activity at 25 µM,[2],71.9%
same,activity at 25 µM,[3],72%
same,activity at 25 µM,[4],74.7%
same,activity at 100 µM,[5],74.5%
same,activity at 100 µM,[6],74.2%
same,activity at 100 µM,[7],70.8%
same,activity at 100 µM,[8],78.4%
O=C(Nc1ncc(Cc2cccc3ccccc23)s1)C1CCCCC1 [MMV1593532],activity at 25 µM,[1],92.1%
same,activity at 25 µM,[2],93.7%
same,activity at 25 µM,[3],94.5%
same,activity at 25 µM,[4],88%
same,activity at 100 µM,[5],93.9%
same,activity at 100 µM,[6],107%
same,activity at 100 µM,[7],89%
same,activity at 100 µM,[8],85.1%
C[C@H]1[C@@H](c2cccc(C(F)(F)F)c2)OC(=O)N1C(=O)NCc1cncc2ccccc12 [MMV1593533],activity at 25 µM,[17],50%
same,activity at 25 µM,[2],54.1%
same,activity at 25 µM,[3],42.5%
same,activity at 25 µM,[4],53.3%
same,activity at 100 µM,[18],36.1%
same,activity at 100 µM,[19],6.17%
same,activity at 100 µM,[20],44.6%
same,activity at 100 µM,[21],57.6%
